This is an account of results in EP4592286A1, “MACROCYCLIC NITROGEN-CONTAINING CROWN ETHER COMPOUND AND USE THEREOF AS PROTEIN KINASE INHIBITOR” (Artivila Biopharma, priority 2022, dated 2024).

In general, inhibition refers to the drop in the measured response relative to a control, in per cent. One may read the IC50 as the concentration needed to halve the response being measured. What is called EC50 is the concentration giving half of the maximal effect.

Assay [1] has as its target T1, JAK1 (Homo sapiens, UniProt P23458). Briefly: experiment of inhibiting kinase activity (Caliper mobility shift assay), JAK1. Type of assay: biochemical. Conditions: for inhibition at 0.1 µM: at 100 nM; for inhibition at 0.1 µM / inhibition at 0.01 µM: read-out: inhibition rate JAK1; for IC50: kinase activity assay, Table 3; for inhibition at 0.01 µM: at 10 nM. The method, boiled down:
(§1)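 IC50 values come from variable-slope fits of % conversion inhibition versus log compound concentration. Kinase and inhibitor were preincubated for 10 min at room temperature, and the reaction was then initiated with ATP and substrate and read by mobility shift.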

Assay [2] has as its target LRRK2 (Homo sapiens, UniProt Q5S007). Description: experiment of inhibiting kinase activity, LRRK2. Type of assay: biochemical. Conditions: for inhibition at 0.1 µM: at 100 nM; for inhibition at 0.1 µM / inhibition at 0.01 µM: read-out: inhibition rate LRRK2; for IC50: kinase activity assay, Table 3; for inhibition at 0.01 µM: at 10 nM. How it is done: The inhibition rates of tested compounds on JAK1, JAK2, JAK3, TYK2, CDK7, CDK9, EGFR (T790M) and LRRK2 kinases were measured. The test concentrations of the compounds were 10 nM and 100 nM, and the detection was performed by replicate wells. Alternatively, compounds were 3-fold serial diluted from 10 µM for 10 concentrations in replicate wells.

Assay [3] has as its target JAK2 (Homo sapiens, UniProt O60674). Briefly: experiment of inhibiting kinase activity (Caliper mobility shift assay), JAK2. Type of assay: biochemical. The settings on record: for inhibition at 0.01 µM: at 10 nM; for inhibition at 0.01 µM / inhibition at 0.1 µM: read-out: inhibition rate JAK2; for inhibition at 0.1 µM: at 100 nM; for IC50: kinase activity assay, Table 3. The method, boiled down: as §1

The target in assay [4] is T1, JAK1. Description: JAKs cell activity test: detection of pSTAT6 in THP1 cells induced by JAK1_IL-4. The format is cell-based. Conditions: pSTAT6, IL-4-induced THP1 cells. How it is done: Detection of pSTAT6 in THP1 cells induced by JAK1_IL-4
(§2) THP1 cells were collected by centrifugation, resuspended with 1×HBSS, counted and diluted to a certain cell density. They were inoculated in a 384-well plate and cultured in a saturated humidity incubator with 37 °C and 5% CO2. The compound (DMSO final volume of 0.3%) was added to THP1 cells (10 doses in duplicates) and cultured in a saturated humidity incubator with 37 °C and 5% CO2. hIL-4 was added to stimulate cells and cultured in a saturated humidity incubator with 37 °C and 5% CO2. The lysis solution was added and incubated at room temperature. According to the instructions of AlphaLISA SureFire Ultra p-STAT6 detection kit, the lysis solution was transferred to pSTAT6 detection system, and the ALPHA signal was read by PE Envision microplate reader. The inhibition rate Inh%=((DMSO-sample)/(DMSO-background))×100 was calculated. IC50 was obtained by fitting with GraphPad Prism non-linear regression equation, and y=Bottom+(Top-Bottom)/(1+10^((LogIC50-x)×hillslope)), where x was the concentration of the compound and y was the inhibition rate.

Assay [5] has as its target T2, JAK3 (Mus musculus, UniProt Q62137).
T2 construct: endogenous in cells; host or cells: CTLL-2
T2 sequence (Q62137 1-1100): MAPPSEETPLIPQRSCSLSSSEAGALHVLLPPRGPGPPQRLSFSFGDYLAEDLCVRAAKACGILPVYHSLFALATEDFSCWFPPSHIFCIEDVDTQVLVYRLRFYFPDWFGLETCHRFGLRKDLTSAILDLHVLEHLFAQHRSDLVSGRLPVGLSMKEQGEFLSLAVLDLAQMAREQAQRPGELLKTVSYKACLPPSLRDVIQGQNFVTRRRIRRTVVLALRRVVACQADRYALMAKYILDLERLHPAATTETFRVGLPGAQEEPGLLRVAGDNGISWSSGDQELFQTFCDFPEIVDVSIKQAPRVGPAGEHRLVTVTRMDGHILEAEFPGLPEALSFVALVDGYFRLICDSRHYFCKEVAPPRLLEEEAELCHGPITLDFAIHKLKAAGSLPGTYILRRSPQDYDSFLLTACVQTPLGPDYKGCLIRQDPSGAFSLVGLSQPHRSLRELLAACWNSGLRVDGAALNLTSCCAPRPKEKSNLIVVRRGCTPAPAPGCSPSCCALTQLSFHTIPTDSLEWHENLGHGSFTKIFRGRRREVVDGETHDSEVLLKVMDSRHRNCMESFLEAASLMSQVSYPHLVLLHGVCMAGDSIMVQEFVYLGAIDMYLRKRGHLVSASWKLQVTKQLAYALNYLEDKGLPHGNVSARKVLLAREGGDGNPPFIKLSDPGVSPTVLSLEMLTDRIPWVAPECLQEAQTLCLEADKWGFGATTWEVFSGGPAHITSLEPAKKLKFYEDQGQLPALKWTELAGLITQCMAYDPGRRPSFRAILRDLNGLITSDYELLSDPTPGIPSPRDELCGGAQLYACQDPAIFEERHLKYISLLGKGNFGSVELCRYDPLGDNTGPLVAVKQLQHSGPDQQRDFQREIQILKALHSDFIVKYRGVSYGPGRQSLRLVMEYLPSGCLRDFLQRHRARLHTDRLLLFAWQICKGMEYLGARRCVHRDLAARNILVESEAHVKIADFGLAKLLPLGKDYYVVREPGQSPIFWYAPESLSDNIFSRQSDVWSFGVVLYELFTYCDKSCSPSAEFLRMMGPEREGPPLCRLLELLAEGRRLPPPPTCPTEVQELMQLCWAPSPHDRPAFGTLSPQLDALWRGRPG
Briefly: JAKs cell activity test: JAK3_pSTAT5 in IL-2-induced CTLL-2 cells. The format is cell-based. The settings on record: pSTAT5, IL-2-induced CTLL-2 cells. How it is done:
as §2
JAK2_pSTAT5 was tesed in IL-3-induced BAF3 cells according to the above steps, and JAK3_pSTAT5 was tested in IL-2-induced CTLL-2 cells (without serum stimulation) according to the above steps.

Sequence of JAK2 (O60674 whole entry): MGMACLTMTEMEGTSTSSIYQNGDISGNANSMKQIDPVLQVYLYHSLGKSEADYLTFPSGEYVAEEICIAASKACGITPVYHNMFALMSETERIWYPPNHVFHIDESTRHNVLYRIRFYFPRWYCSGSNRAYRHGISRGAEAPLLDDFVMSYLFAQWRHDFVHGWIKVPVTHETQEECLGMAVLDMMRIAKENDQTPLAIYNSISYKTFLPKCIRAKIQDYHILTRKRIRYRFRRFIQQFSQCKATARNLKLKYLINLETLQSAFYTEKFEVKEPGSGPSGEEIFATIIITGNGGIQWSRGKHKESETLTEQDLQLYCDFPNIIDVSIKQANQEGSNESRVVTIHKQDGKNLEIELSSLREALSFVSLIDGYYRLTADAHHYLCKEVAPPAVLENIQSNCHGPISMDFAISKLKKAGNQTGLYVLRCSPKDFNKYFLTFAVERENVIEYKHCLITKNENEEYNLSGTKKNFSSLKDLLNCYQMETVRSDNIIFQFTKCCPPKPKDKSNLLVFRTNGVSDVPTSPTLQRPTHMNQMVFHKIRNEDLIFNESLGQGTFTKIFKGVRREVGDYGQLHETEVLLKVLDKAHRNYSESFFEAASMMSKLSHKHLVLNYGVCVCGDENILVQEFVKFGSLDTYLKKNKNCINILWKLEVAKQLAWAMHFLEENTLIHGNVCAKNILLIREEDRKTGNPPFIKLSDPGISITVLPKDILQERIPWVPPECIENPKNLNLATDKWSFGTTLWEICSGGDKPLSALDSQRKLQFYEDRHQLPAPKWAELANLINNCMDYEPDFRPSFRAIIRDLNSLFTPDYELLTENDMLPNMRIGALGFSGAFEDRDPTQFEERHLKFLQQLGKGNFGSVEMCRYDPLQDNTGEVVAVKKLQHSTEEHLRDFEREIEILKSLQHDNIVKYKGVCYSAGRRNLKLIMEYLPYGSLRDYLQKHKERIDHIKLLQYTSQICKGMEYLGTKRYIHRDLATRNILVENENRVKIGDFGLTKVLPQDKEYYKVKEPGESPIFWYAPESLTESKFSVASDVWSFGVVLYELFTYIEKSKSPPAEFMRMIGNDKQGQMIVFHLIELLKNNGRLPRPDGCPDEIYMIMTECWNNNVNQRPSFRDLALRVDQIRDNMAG
Sequence of LRRK2 (Q5S007 whole entry): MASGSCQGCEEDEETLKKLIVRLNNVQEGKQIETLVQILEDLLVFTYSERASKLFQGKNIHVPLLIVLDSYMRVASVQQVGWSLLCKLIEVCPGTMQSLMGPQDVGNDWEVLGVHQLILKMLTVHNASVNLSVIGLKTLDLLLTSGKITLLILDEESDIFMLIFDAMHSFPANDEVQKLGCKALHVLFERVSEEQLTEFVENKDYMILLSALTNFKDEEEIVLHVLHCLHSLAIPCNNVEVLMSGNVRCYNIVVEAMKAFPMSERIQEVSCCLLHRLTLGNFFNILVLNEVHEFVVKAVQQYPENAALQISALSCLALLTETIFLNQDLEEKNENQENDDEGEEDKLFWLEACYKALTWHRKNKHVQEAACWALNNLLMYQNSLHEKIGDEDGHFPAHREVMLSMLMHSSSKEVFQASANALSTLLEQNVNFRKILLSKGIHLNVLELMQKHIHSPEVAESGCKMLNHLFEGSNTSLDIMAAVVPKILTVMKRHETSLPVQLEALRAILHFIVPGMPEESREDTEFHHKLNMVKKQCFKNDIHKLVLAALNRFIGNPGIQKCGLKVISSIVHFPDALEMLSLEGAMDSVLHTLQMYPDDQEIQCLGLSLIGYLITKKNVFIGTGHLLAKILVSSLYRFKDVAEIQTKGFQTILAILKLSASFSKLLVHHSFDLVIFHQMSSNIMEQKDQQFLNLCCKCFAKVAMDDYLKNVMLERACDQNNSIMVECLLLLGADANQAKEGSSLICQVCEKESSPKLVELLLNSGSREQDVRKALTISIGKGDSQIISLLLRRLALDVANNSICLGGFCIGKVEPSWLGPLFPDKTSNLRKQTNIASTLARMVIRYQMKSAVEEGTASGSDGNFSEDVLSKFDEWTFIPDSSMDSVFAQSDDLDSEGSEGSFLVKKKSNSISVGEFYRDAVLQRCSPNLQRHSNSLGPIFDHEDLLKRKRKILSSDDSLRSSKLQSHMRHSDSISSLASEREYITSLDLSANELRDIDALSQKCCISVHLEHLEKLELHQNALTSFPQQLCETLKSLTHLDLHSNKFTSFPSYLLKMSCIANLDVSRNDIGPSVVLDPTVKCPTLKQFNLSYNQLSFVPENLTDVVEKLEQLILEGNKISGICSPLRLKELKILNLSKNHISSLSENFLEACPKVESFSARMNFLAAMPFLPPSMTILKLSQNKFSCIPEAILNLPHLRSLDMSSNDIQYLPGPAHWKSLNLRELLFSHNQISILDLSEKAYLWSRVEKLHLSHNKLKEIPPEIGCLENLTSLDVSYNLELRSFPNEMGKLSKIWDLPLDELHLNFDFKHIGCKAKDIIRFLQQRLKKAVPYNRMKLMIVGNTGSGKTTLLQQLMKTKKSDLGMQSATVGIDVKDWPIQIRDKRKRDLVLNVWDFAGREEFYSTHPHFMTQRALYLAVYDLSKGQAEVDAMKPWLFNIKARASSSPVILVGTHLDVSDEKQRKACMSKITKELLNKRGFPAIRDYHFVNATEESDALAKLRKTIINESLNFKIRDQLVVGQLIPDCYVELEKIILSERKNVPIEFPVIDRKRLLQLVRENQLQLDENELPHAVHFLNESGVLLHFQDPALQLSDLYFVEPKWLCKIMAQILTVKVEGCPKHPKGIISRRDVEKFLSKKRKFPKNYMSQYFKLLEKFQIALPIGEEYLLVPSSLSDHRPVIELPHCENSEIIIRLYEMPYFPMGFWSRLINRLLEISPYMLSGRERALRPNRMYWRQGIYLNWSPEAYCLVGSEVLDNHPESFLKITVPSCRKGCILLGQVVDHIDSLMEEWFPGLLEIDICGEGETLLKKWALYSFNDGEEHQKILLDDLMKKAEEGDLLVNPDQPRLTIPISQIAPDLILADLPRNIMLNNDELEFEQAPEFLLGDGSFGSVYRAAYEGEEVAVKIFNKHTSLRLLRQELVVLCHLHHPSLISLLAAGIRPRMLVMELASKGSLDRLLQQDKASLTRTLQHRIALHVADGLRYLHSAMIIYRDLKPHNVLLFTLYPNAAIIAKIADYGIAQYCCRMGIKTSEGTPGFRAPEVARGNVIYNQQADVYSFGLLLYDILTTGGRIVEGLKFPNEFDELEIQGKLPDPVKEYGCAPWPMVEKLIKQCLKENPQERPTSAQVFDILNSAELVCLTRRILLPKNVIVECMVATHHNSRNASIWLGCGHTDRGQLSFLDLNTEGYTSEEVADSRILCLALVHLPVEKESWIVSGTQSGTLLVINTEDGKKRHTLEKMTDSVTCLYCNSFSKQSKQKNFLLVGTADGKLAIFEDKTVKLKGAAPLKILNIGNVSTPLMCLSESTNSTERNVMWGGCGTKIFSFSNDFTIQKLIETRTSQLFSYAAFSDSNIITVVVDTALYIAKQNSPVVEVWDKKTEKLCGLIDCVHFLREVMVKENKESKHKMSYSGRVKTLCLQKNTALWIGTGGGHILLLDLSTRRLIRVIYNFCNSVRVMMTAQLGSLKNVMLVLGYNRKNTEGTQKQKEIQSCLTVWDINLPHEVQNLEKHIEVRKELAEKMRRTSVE
T1 sequence (P23458 whole entry): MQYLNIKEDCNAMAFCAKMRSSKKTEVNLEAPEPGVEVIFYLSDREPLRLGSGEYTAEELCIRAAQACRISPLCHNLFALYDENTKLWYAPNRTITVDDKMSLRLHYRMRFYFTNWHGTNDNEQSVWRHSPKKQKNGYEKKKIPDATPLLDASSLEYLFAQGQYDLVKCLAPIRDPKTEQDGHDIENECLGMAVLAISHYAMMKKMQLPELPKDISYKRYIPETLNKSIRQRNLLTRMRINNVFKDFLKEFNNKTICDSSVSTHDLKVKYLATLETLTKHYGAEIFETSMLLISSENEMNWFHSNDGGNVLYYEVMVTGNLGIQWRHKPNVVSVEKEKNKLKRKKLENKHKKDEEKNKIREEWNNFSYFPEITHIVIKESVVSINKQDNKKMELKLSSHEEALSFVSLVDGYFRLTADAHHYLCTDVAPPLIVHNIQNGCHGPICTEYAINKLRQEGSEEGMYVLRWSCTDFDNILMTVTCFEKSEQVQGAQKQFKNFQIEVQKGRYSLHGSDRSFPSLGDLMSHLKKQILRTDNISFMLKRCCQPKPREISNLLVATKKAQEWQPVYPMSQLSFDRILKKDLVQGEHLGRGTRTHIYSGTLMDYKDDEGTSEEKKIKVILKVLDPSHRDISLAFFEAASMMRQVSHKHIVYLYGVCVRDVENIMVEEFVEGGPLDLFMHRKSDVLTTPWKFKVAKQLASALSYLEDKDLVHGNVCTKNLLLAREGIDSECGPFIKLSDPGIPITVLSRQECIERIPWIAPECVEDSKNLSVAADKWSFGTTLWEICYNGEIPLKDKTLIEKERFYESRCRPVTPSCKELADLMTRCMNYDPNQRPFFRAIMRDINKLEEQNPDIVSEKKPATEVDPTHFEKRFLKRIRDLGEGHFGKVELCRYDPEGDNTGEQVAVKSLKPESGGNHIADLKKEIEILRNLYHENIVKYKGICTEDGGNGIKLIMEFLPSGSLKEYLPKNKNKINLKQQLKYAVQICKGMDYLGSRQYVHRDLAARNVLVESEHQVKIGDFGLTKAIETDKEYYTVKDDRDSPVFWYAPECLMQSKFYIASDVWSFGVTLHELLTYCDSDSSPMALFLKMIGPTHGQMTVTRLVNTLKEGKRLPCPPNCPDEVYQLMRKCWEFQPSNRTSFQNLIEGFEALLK

Turning to `CN1CCOCCOc2cc(Nc3ncc(F)c(-c4ccc(C(=O)NCC#N)cc4)n3)ccc2OCC1` [Example 16, N-(cyanomethyl)-4-(5-fluoro-2-((7-methyl-2,3,6,7,8,9-hexahydro-5H-benzo[b][1,4,7]trioxa[10]azacyclododecan-13-yl)amino)pyrimidin-4-yl)benzamide], in assay [1], the inhibition at 0.1 µM was in the range of 40 to 79% and the IC50 was 50 to 200 nM. Further, in assay [2], the inhibition at 0.1 µM was 40 to 79% and the IC50 was in the range of 50 to 200 nM. Moreover, in assay [3], the inhibition at 0.01 µM lay in the range of 40 to 79%, the inhibition at 0.1 µM was more than 80% and the concentration for half-maximal inhibition (IC50) is less than 50 nM. Besides, the EC50 in assay [4] lay within 50 to 500 nM.
Consider `CCS(=O)(=O)N1CC(CC#N)(n2cc(-c3nc(Nc4ccc5c(c4)OCCN(C)CCO5)nc4[nH]ccc34)cn2)C1` [Example 28, 2-(1-(ethylsulfonyl)-3-(4-(2-((4-methyl-3,4,5,6-tetrahydro-2H-benzo[b][1,4,7]dioxazolin-9-yl)amino)-7H-pyrrolo[2,3-d]pytimidin-4-yl)-1H-pyrazol-1-yl)azetidin-3-yl) acetonitrile], for which the results for the inhibition at 0.01 µM in assay [1], in assay [2] and in assay [3] were more than 80%, 40 to 79% and more than 80%, respectively. Further, the inhibition at 0.1 µM in assay [1], in assay [2] and in assay [3] was more than 80% each time. In addition, the IC50 in assay [1], in assay [2] and in assay [3] was less than 50 nM in each case. Further, the EC50 in assay [5] and in assay [4] was less than 50 nM throughout.
`CN1CCOCCOc2cc(Nc3nc(-c4cnn(C(CC#N)C5CCCC5)c4)c4cc[nH]c4n3)ccc2OCC1` (stereo not drawn) [Example 26, 3-cyclopentyl-3-(4-(2-((7-methyl-2,3,6,7,8,9-hexahydro-5H-benzo[b][1,4,7]trioxa[10]azacyclododecan-13-yl)amino)-7H-pyrrolo[2,3-d]pytimidin-4-yl)-1H-pyrazol-1-yl)propionitrile]: the inhibition at 0.01 µM in assay [1], in assay [2] and in assay [3] was more than 80% throughout. For the same compound, the inhibition at 0.1 µM in assay [1], in assay [2] and in assay [3] was more than 80% throughout. Further, the values for the EC50 in assay [5] and in assay [4] were 500 to 5000 nM and less than 50 nM, respectively.
